From patent US12358886B2, “Heterocyclic compounds for use in the treatment of cancer” (Artios Pharma Limited, priority 2019, dated 2025)
Like-named read-outs stand apart in the source and are kept apart here.

Biological target: Polθ protein (amino acids 2-2590) (Homo sapiens, UniProt O75417)
Test: Polθ full length enzyme potency assay (PicoGreen)
Conditions: full length N-His, C-term FLAG tagged Polθ, PicoGreen fluorescence, 12 point concentration response
Protocol: Polθ Full Length Enzyme Potency Assay
PicoGreen assay was used to measure the ability of compounds to inhibit the activity of Polθ in vitro. […] DMSO concentration was maintained at 1% by back filling with DMSO solution. […] This was dispensed into each well of the compound plate using a VIAFLO 16 channel manual pipette (Integra) and pre-incubated at rt for 30 min. 3 μL of 2× working solution of dNTPs (40 μM) (dATP, dCTP, dGTP, dTTP; Sigma D6500, D4635, D4010, T0251) diluted in assay buffer was then added and the reaction incubated for 60 min at rt. The reaction was stopped by addition of 10 mM EDTA, 25 mM Tris pH 7.5 and 1:200 dilution of PicoGreen dye (Invitrogen P7581).

Sequence of Polθ protein (amino acids 2-2590) (O75417 2-2590): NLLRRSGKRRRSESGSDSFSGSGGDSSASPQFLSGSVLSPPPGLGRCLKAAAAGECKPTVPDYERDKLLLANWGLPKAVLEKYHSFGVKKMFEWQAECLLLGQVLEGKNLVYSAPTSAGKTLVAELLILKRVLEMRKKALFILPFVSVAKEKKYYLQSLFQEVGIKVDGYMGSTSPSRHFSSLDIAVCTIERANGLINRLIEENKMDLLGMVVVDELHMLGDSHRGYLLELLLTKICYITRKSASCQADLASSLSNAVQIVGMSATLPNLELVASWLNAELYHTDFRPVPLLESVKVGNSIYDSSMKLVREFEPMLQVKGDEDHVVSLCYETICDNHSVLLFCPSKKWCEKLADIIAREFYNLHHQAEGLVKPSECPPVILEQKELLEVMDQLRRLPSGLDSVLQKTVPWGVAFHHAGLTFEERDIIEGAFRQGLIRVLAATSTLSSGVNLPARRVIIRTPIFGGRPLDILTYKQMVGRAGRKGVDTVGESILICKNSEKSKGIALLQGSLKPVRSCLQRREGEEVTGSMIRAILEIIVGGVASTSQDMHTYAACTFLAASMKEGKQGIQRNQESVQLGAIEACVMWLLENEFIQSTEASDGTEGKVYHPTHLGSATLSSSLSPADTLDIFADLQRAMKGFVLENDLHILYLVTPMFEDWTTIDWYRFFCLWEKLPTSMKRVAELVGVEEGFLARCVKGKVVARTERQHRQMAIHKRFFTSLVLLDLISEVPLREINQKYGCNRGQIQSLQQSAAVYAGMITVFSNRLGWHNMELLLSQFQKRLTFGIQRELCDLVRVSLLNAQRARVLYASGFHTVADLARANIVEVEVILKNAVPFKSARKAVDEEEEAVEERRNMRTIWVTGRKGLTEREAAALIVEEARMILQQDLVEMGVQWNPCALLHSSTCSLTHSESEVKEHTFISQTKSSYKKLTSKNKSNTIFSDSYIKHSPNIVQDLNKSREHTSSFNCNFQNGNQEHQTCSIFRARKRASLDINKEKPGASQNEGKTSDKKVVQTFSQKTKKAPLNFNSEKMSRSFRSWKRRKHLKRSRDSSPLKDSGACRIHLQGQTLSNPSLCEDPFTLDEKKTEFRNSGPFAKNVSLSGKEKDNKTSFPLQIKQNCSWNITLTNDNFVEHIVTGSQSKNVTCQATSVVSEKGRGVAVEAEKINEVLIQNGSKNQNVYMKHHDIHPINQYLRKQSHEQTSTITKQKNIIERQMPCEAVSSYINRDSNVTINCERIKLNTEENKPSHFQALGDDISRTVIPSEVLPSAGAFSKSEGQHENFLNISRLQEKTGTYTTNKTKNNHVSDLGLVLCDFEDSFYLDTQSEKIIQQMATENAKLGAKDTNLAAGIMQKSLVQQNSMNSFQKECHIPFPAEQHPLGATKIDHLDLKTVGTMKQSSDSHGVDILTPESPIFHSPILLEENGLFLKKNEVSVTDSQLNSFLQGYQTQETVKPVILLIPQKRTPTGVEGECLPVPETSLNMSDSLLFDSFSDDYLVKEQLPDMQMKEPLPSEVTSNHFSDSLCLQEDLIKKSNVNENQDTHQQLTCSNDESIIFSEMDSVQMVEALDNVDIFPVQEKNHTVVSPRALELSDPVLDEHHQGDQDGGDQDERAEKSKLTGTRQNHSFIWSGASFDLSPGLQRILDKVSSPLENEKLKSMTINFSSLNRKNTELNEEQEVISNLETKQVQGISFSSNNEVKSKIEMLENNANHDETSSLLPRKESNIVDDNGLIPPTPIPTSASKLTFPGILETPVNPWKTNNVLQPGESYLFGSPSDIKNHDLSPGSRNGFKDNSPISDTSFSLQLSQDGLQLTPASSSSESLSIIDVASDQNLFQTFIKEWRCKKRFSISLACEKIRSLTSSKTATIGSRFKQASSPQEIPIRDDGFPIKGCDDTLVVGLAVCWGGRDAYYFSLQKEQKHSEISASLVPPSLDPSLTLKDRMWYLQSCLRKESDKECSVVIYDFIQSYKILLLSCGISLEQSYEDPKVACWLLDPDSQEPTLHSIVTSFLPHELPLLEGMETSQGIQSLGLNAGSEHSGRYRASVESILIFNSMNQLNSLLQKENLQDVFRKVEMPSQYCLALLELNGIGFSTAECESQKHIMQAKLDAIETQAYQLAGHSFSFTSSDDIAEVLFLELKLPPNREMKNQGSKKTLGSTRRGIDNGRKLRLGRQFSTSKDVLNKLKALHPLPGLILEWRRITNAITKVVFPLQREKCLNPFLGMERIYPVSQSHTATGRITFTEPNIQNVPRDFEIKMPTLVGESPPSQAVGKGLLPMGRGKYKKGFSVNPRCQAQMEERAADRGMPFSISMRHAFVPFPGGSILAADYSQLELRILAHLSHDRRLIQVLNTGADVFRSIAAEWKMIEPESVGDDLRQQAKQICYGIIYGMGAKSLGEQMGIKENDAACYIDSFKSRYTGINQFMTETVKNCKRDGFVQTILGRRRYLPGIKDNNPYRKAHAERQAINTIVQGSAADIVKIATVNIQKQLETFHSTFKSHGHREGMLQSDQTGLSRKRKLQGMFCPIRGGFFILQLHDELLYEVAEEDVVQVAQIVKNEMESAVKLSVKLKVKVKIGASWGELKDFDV

With `CCN(C(=O)[C@@H]1C[C@H](N2CCOC(CO)C2)CN1c1nc(C)cc(C(F)(F)F)c1C#N)c1ccc(C)c(Cl)c1` (stereo partly drawn) [Example 149, (2S,4S)-N-(3-Chloro-4-methylphenyl)-1-(3-cyano-6-methyl-4-(trifluoromethyl)pyridin-2-yl)-N-ethyl-4-(2-(hydroxymethyl)morpholino)pyrrolidine-2-carboxamide] the IC50 (Polθ IC50 (nM)) was 5 nM.

`CCN(C(=O)[C@@H]1[C@H](O)[C@H](O)C(=O)N1c1cc(C(F)(F)F)cc(C)n1)c1ccc(F)c(Cl)c1` [Example 66, (2S,3S,4S)-N-(3-Chloro-4-fluoro-phenyl)-N-ethyl-3,4-dihydroxy-1-(6-methyl-4-(trifluoromethyl)pyridin-2-yl)-5-oxopyrrolidine-2-carboxamide] gave an IC50 (read-out: Polθ IC50) of 20 nM.

In the case of `Cc1cc(C(F)(F)F)cc(N2C(=O)N(CC3CNC3)C[C@H]2C(=O)N(C)c2ccc(F)c(Cl)c2F)n1` [Example 188, (S)-1-(Azetidin-3-ylmethyl)-N-(3-chloro-2,4-difluorophenyl)-N-methyl-3-(6-methyl-4-(trifluoromethyl)pyridin-2-yl)-2-oxoimidazolidine-4-carboxamide], the IC50 (Polθ IC50 (nM)) is reported as 18 nM.

Work on `Cc1cccc(N(C)C(=O)[C@@H]2C[C@H](O)CN2c2nc(C)cc(C)c2C#N)c1` [Example 9, (2S,4S)-1-(3-Cyano-4,6-dimethylpyridin-2-yl)-4-hydroxy-N-methyl-N-(m-tolyl)pyrrolidine-2-carboxamide] yielded an IC50 (Polθ IC50 (nM)) of 87 nM.

With `Cc1cc(C(F)(F)F)cc(N2C(=O)N(CC3(O)CNC3)C[C@H]2C(=O)N(C)c2ccc(F)c(Cl)c2)n1` [Example 225, (S)—N-(3-Chloro-4-fluorophenyl)-1-((3-hydroxyazetidin-3-yl)methyl)-N-methyl-3-(6-methyl-4-(trifluoromethyl)pyridin-2-yl)-2-oxoimidazolidine-4-carboxamide] the IC50 (Polθ IC50 (nM)) was 17 nM.

`CCN(C(=O)[C@@H]1COC(=O)N1c1cc(C(F)(F)F)cc(C)n1)c1ccc(F)c(Cl)c1` [Example 103, (S)-N-(3-Chloro-4-fluorophenyl)-N-ethyl-3-(6-methyl-4-(trifluoromethyl)-pyridin-2-yl)-2-oxooxazolidine-4-carboxamide] showed an IC50 (read-out: Polθ IC50) of 54 nM.

With `C=C(C)c1cc(C)nc(N2C(=O)OC[C@H]2C(=O)N(C)c2ccc(F)c(Cl)c2)c1` [Example 117, (S)—N-(3-Chloro-4-fluorophenyl)-N-methyl-3-(6-methyl-4-(prop-1-en-2-yl)pyridin-2-yl)-2-oxooxazolidine-4-carboxamide] the IC50 (Polθ IC50 (nM)) was 61 nM.

`Cc1cc(C(F)(F)F)cc(N2C(=O)NC[C@H]2C(=O)N(C)c2ccc3cc[nH]c3n2)n1` [Example 233, (S)—N-Methyl-3-(6-methyl-4-(trifluoromethyl)pyridin-2-yl)-2-oxo-N-(1H-pyrrolo[2,3-b]pyridin-6-yl)imidazolidine-4-carboxamide] gave an IC50 (Polθ IC50 (nM)) of 3 nM.

In the case of `Cc1cc(C(F)(F)F)cc(N2C(=O)N(CC3(O)CCNC3)C[C@H]2C(=O)N(C)c2ccc(F)c(Cl)c2F)n1` (stereo partly drawn) [Example 222, (4S)—N-(3-Chloro-2,4-difluorophenyl)-1-((3-hydroxypyrrolidin-3-yl)methyl)-N-methyl-3-(6-methyl-4-(trifluoromethyl)pyridin-2-yl)-2-oxoimidazolidine-4-carboxamide], the IC50 (Polθ IC50 (nM)) is reported as 9 nM.

Compound `CCN(C(=O)[C@@H]1C[C@H](O)C(=O)N1c1cc(C(F)(F)F)cc(C)n1)c1ccc(F)c(Cl)c1` [Example 75, (2S,4S)—N-(3-Chloro-4-fluorophenyl)-N-ethyl-4-hydroxy-1-(6-methyl-4-(trifluoromethyl)pyridin-2-yl)-5-oxopyrrolidine-2-carboxamide] has an IC50 (read-out: Polθ IC50) of 95 nM.

`CCN(C(=O)[C@@H]1C[C@H](N2CCOC(CO)C2)CN1c1nc(C)cc(C(F)(F)F)c1C#N)c1ccc(Cl)c(Cl)c1` (stereo partly drawn) [Example 148, (2S,4S)-1-(3-Cyano-6-methyl-4-(trifluoromethyl)pyridin-2-yl)-N-(3,4-dichlorophenyl)-N-ethyl-4-(2-(hydroxymethyl)-morpholino)pyrrolidine-2-carboxamide] was tested, and the IC50 (Polθ IC50 (nM)) was 6 nM.

With `[2H]C([2H])([2H])N(C(=O)[C@@H]1[C@H](O)[C@H](O)C(=O)N1c1cc(C(F)(F)F)cc(C)n1)c1ccc(F)c(Cl)c1` [Example 163, (2S,3S,4S)—N-(3-Chloro-4-fluorophenyl)-3,4-dihydroxy-N-(methyl-d3)-1-(6-methyl-4-(trifluoromethyl)pyridin-2-yl)-5-oxopyrrolidine-2-carboxamide] the IC50 (Polθ IC50 (nM)) was 11 nM.

Work on `Cc1cc(C)c(C#N)c(N2C[C@@H](O)C[C@H]2C(=O)N(C)c2ccccc2)n1` [Example 7, (2S,4S)-1-(3-Cyano-4,6-dimethylpyridin-2-yl)-4-hydroxy-N-methyl-N-phenylpyrrolidine-2-carboxamide] yielded an IC50 (Polθ IC50 (nM)) of 438 nM.

Compound `CC(=O)N1CCN(CCCN2C[C@@H](C(=O)N(C)c3ccc(F)c(Cl)c3F)N(c3cc(C(F)(F)F)cc(C)n3)C2=O)CC1` [Example 221, (S)-1-(3-(4-Acetylpiperazin-1-yl)propyl)-N-(3-chloro-2,4-difluorophenyl)-N-methyl-3-(6-methyl-4-(trifluoromethyl)pyridin-2-yl)-2-oxoimidazolidine-4-carboxamide] has an IC50 (Polθ IC50 (nM)) of 11 nM.

For `Cc1cc(C(F)(F)F)c(C#N)c(N2C[C@@H](O)C[C@H]2C(=O)N(C)c2ccccc2)n1` [Example 8, (2S,4S)-1-(3-Cyano-6-methyl-4-(trifluoromethyl)pyridin-2-yl)-4-hydroxy-N-methyl-N-phenylpyrrolidine-2-carboxamide], the IC50 (Polθ IC50 (nM)) was 180 nM.

`CCN(C(=O)[C@@H]1C[C@H](O)CN1c1nc(C)cc(C(F)(F)F)c1C#N)c1cccc(C)c1` [Example 22, (2S,4S)-1-(3-Cyano-6-methyl-4-(trifluoromethyl)pyridin-2-yl)-N-ethyl-4-hydroxy-N-(m-tolyl)-pyrrolidine-2-carboxamide] gave an IC50 (read-out: Polθ IC50) of 27 nM.

With `Cc1cc(C(F)(F)F)cc(N2C(=O)C[C@@H](O)[C@H]2C(=O)N(C)c2ccc(F)c(Cl)c2)n1` [Example 80, (2S,3R)—N-(3-Chloro-4-fluorophenyl)-3-hydroxy-N-methyl-1-(6-methyl-4-(trifluoromethyl)-pyridin-2-yl)-5-oxopyrrolidine-2-carboxamide] the IC50 (Polθ IC50 (nM)) was 6 nM.

In the case of `Cc1cc(C(F)(F)F)cc(N2C(=O)N(CC(O)CN3CCC(F)(F)C3)C[C@H]2C(=O)N(C)c2ccc(F)c(Cl)c2F)n1` (stereo partly drawn) [Example 216, (4S)—N-(3-Chloro-2,4-difluorophenyl)-1-(3-(3,3-difluoropyrrolidin-1-yl)-2-hydroxy-propyl)-N-methyl-3-(6-methyl-4-(trifluoromethyl)pyridin-2-yl)-2-oxoimidazolidine-4-carboxamide], the IC50 (Polθ IC50 (nM)) is reported as 4 nM.

In the case of `Cc1cc(C(F)(F)F)cc(N2C(=O)[C@@H](O)[C@@H](O)[C@H]2C(=O)N(C)c2ccc(F)c(C)n2)n1` [Example 170, (2S,3S,4S)—N-(5-Fluoro-6-methylpyridin-2-yl)-3,4-dihydroxy-N-methyl-1-(6-methyl-4-(trifluoromethyl)pyridin-2-yl)-5-oxopyrrolidine-2-carboxamide], the IC50 (Polθ IC50 (nM)) is reported as 193 nM.

With `Cc1cc(C(F)(F)F)cc(N2C(=O)[C@@H](CN(C)C)C[C@@H]2C(=O)N(C)c2ccc(F)c(Cl)c2)n1` (stereo in doubt) [Example 79, (2R,4R)—N-(3-Chloro-4-fluorophenyl)-4-((dimethylamino)methyl)-N-methyl-1-(6-methyl-4-(trifluoromethyl)pyridin-2-yl)-5-oxopyrrolidine-2-carboxamide] the IC50 (Polθ IC50 (nM)) was 90 nM.

Work on `Cc1cc(C(F)(F)F)cc(N2C(=O)N(CC(=O)N(C)C)C[C@H]2C(=O)N(C)c2ccc(F)c(Cl)c2)n1` [Example 185, (S)-N-(3-Chloro-4-fluorophenyl)-1-(2-(dimethylamino)-2-oxoethyl)-N-methyl-3-(6-methyl-4-(trifluoromethyl)pyridin-2-yl)-2-oxoimidazolidine-4-carboxamide] yielded an IC50 (Polθ IC50 (nM)) of 10 nM.

With `Cc1cc(C(F)(F)F)cc(N2C(=O)[C@H]3OC(C)(C)O[C@H]3[C@H]2C(=O)N(C)c2ccc(F)c(Cl)c2F)n1` [Example 69, (3aS,4S,6aS)—N-(3-Chloro-2,4-difluorophenyl)-N,2,2-trimethyl-5-(6-methyl-4-(trifluoromethyl)-pyridin-2-yl)-6-oxotetrahydro-4H-[1,3]dioxolo[4,5-c]pyrrole-4-carboxamide] the IC50 (Polθ IC50 (nM)) was 69 nM.

`Cc1cc(C(C)C(F)(F)F)cc(N2C(=O)OC[C@H]2C(=O)N(C)c2ccc(F)c(Cl)c2)n1` (stereo partly drawn) [Example 124, (4S)—N-(3-Chloro-4-fluorophenyl)-N-methyl-3-(6-methyl-4-(1,1,1-trifiuoropropan-2-yl)pyridin-2-yl)-2-oxooxazolidine-4-carboxamide] showed an IC50 (Polθ IC50 (nM)) of 304 nM.

`CCN(C(=O)[C@@H]1C[C@@H](N(C)C)CN1c1nc(C)cc(C)c1C#N)c1cccc(C)c1` [Example 41, (2S,4R)-1-(3-Cyano-4,6-dimethylpyridin-2-yl)-4-(dimethylamino)-N-ethyl-N-(m-tolyl)pyrrolidine-2-carboxamide] was tested, and the IC50 (Polθ IC50 (nM)) was 263 nM.

For `Cc1cc(C(F)(F)F)cc(N2C(=O)OC[C@H]2C(=O)N(C)c2ccc(F)c(Cl)c2)n1` [Example 83, (S)—N-(3-Chloro-4-fluorophenyl)-N-methyl-3-(6-methyl-4-(trifluoromethyl)pyridin-2-yl)-2-oxooxazolidine-4-carboxamide], the IC50 (Polθ IC50 (nM)) was 16 nM.

In the case of `Cc1cc(C(F)(F)F)cc(N2C(=O)N(CCS(=O)(=O)N(C)C)C[C@H]2C(=O)N(C)c2ccc(F)c(Cl)c2)n1` [Example 181, (S)—N-(3-Chloro-4-fluorophenyl)-1-(2-(N,N-dimethylsulfamoyl)ethyl)-N-methyl-3-(6-methyl-4-(trifluoromethyl)pyridin-2-yl)-2-oxoimidazolidine-4-carboxamide], the IC50 (Polθ IC50 (nM)) is reported as 45 nM.

In the case of `Cc1cc(C(F)(F)F)cc(N2C(=O)OC[C@H]2C(=O)N(C)c2ccc(C)c(Cl)c2)n1` [Example 88, (S)-N-(3-Chloro-4-methylphenyl)-N-methyl-3-(6-methyl-4-(trifluoromethyl)pyridin-2-yl)-2-oxooxazolidine-4-carboxamide], the IC50 (Polθ IC50 (nM)) is reported as 6 nM.

`Cc1cc(C(F)(F)F)cc(N2C(=O)OC[C@H]2C(=O)N(C)c2ccc3cc[nH]c3n2)n1` [Example 127, (S)—N-Methyl-3-(6-methyl-4-(trifluoromethyl)pyridin-2-yl)-2-oxo-N-(1H-pyrrolo[2,3-b]pyridin-6-yl)oxazolidine-4-carboxamide] was tested, and the IC50 (Polθ IC50 (nM)) was 15 nM.
